According to US9233143B2, “Medicinal agent for preventing exacerbation of malignant tumor, comprising combination of natriuretic peptide receptor GC-A and GC-B agonists” (National Cerebral and Cardiovascular Center, priority 2011, dated 2016):

Experiments:
[1] = tested on: cancer-associated fibroblasts (CAFs); experiment: Changes in the intracellular cGMP level in response to natriuretic peptide stimulus, CAFs; format: cell-based, human; conditions: 1×10^−11 M to 1×10^−6 M, 10 minutes, FIG. 1B
Description: For obtaining CAFs (cancer-associated fibroblasts), tissue harvested from a patient having lung cancer surgery was subjected to primary culture after the consent of the patient was obtained. The cells were then cultured in DMEM culture medium containing 10% FCS under 5% CO2 at 37° C., and the cells of the 5th and earlier passages were used.
The A549 cells were cultured in a 24-well dish at 4×10^4 cells/well, and the culture medium was replaced with DMEM culture medium free from FCS the next day. The CAFs were cultured in a 24-well dish at 1×10^4 cells/well, and the culture medium was replaced with DMEM culture medium containing 1% FCS the next day.
To these culture media, solutions of hANP, hBNP, and hCNP-22 (final concentration: ten-fold serial dilution from 1×10^−11 M to 1×10^−6 M, the same amount of physiological saline was used as a control) were separately added. After 10 minutes had passed, 400 μL of cooled 70% ethanol (containing 0.1 N hydrochloric acid) was added, and ultrasonication was performed for a short time. The treated solution was lyophilized, and the cGMP level was measured using Cyclic GMP Assay kit (made by Yamasa Corp.).

A549 cells = experiment: EMT induced by TGF-β1 in A549 cells (morphology, quantitative RT-PCR); format: cell-based, human
Description: Using a 6-well dish, the A549 cells were cultured at 1×10^5 cells/well, and the culture medium was replaced with DMEM culture medium free from FBS the next day. After 24 hours of culture, the cells were used in the following experiment.
An ANP group (a hANP solution was added (final concentration: 1 μM)) and a control group (the same amount of physiological saline was added) were prepared, and after 2 hours from the addition (of the hANP solution or the physiological saline) to the A549 cells, TGF-β1 was added so that the final concentration would be 0.125, 0.25, 0.5, 1.0, and 2.0 ng/mL. After 24 hours had passed, the morphological change in the cells was observed under a microscope and photographed (FIG. 2).
Then, total RNA was recovered from the above prepared ANP group and control group using TRIZOL total RNA isolation reagent (made by Invitrogen), cDNA was synthesized using reverse transcriptase, and the mRNA levels of E-cadherin, N-cadherin, VEGF-A, PDGF-B, TNF-α, and IL-6 were measured by quantitative RT-PCR. The mRNA level of each intended gene was calculated as the relative ratio of the mRNA amount of the gene to that of the housekeeping gene 36B4 measured at the same time. In the Examples below, unless otherwise stated, the mRNA levels were obtained through the same calculation.
It is known that in EMT, the expression of E-cadherin decreases while the expression of N-cadherin increases. The expression ratio of the two kinds of cadherin (N-cad/E-cad) is considered to be useful as an indicator of the degree of EMT.

[2] = tested on: A549 cells co-cultured with CAFs; experiment: Co-culture system of cancer cells and CAFs (mRNA of the A549 cells); format: cell-based, human; conditions: each test substance 1 μM
Description: In a 6-well dish, the A549 cells were cultured at 1×10^5 cells/well. The culture medium was replaced with DMEM culture medium free from FBS the next day, and the cells were further cultured for 24 hours. In a 6-well dish having a cell culture insert (1.0 μm pore size, made by BD), the CAFs were cultured at 5×10^4 cells/well. The culture medium was replaced with DMEM culture medium containing 1% FBS the next day, and the cells were further cultured for 24 hours. To each culture medium of the two kinds of cells, test substances were separately added to prepare test substance addition groups. Control groups with no test substance were also prepared. After two hours of culture, these were subjected to co-culture. The test substance addition groups were ANP groups containing hANP at a final concentration of 1 μM, CNP groups containing hCNP-22 at a final concentration of 1 μM, and ANP+CNP groups containing both hANP and hCNP-22 each at a final concentration of 1 μM. Each of the groups were prepared by adding the test substance to each culture medium of the two kinds of cells.
On the 6-well dish of A549 cells treated as above, the above cell culture insert with the CAFs was placed to prepare a co-culture experimental model where only the culture media could pass through the cell culture insert. After 24, 48, and 72 hours of culture, total RNA of the A549 cells only was recovered, cDNA was synthesized, and the mRNA levels of E-cadherin, N-cadherin, VEGF-A, PDGF-B, and IL-6 were measured by quantitative RT-PCR (FIGS. 6 to 8). The experiment using ANP alone (ANP groups: FIG. 6), the experiment using CNP alone (CNP groups: FIG. 7), and the experiment using ANP and CNP in combination (ANP+CNP group: FIG. 8) were independently conducted, where control groups were separately set for each experiment.

A549 cells and CAFs = experiment: Mouse models having transplanted cancer cells and CAFs, administration started after tumor tissue was established (Example 6); format: in vivo; conditions: hANP alone 0.5 μg/kg/min, started 2 weeks after transplantation, 4 weeks, FIG. 10
Description: In this Example and Example 6, 5-week-old male immunodeficient mice (KSN mice, Japan SLC, Inc.) were used. The osmotic pumps used were MODEL2004 (for 28-day administration) made by ALZET (Cupertino, Calif.). A mixed suspension of the A549 cells and the CAFs was prepared using DMEM free from FBS so as to contain the A549 cells at 1×10^6 cells/100 μL and the CAFs at 0.5×10^6 cells/100 μL. The mixed suspension in an amount of 100 μL per mouse was subcutaneously injected in the back of the immunodeficient mice. […] After 2 weeks of observation from the injection of the cell suspension, the mice to which the mixed suspension had been injected were randomly divided into 4 groups (control group, ANP group, CNP group, and ANP+CNP group), and an osmotic pump appropriately adjusted for each group as shown below was subcutaneously implanted to start administration. • Control group and A549 group: physiological saline was administered • ANP group: hANP was administered at 0.5 μg/kg/min • CNP group: hCNP-22 was administered at 2.5 μg/kg/min • ANP+CNP group: hANP was administered at 0.5 μg/kg/min and hCNP-22 was administered at 2.5 μg/kg/min Observation was further continued for 4 weeks after the start of administration, the tumor size at the cell injection site was measured weekly, and tumor volume was calculated in the same way as in Example 5 (FIG. 10).

[3] = A549 cells, test substance 1 μM, mRNA level, FIG. 3

CC[C@H](C)[C@@H]1NC(=O)[C@H](CCCNC(=N)N)NC(=O)[C@H](CC(=O)O)NC(=O)[C@H](CCSC)NC(=O)[C@H](CCCNC(=N)N)NC(=O)CNC(=O)CNC(=O)[C@H](Cc2ccccc2)NC(=O)[C@@H](NC(=O)[C@H](CO)NC(=O)[C@H](CO)NC(=O)[C@H](CCCNC(=N)N)NC(=O)[C@H](CCCNC(=N)N)NC(=O)[C@H](CC(C)C)NC(=O)[C@@H](N)CO)CSSC[C@@H](C(=O)N[C@@H](CC(N)=O)C(=O)N[C@@H](CO)C(=O)N[C@@H](Cc2ccccc2)C(=O)N[C@@H](CCCNC(=N)N)C(=O)N[C@@H](Cc2ccc(O)cc2)C(=O)O)NC(=O)CNC(=O)[C@H](CC(C)C)NC(=O)CNC(=O)[C@H](CO)NC(=O)[C@H](CCC(N)=O)NC(=O)[C@H](C)NC(=O)CNC1=O [hANP]
cGMP level of the CAFs [1]: did not show such an action
expression ratio of N-cad/E-cad (indicator of EMT) (A549 cells; A549 cells, 1 μM hANP, TGF-β1 stimulus, FIG. 4): significantly decreased
morphological change in the cells associated with EMT induced by the TGF-β1 stimulus (A549 cells; A549 cells, test substance 1 μM, 24 hours after TGF-β1, FIG. 2): significantly suppressed
gene expression of the growth factors (VEGF-A, PDGF-B) and the inflammatory cytokines (TNF-α, IL-6) increased by EMT induced by the TGF-β1 stimulus (A549 cells; A549 cells, test substance 1 μM, TGF-β1 0.125-2.0 ng/mL, 24 hours, mRNA level, FIG. 3): significantly suppressed
decrease in the expression of E-cadherin induced by the TGF-β1 stimulus (A549 cells; [3]): inhibited decrease
increase in the expression of N-cadherin induced by the TGF-β1 stimulus (A549 cells; [3]): significantly suppressed increase
effect of suppressing EMT (A549 cells; concentration of 1 μM, summary of Example 2): significantly suppressing EMT
gene expression of the growth factors (VEGF-A, PDGF-B) and inflammatory cytokine (IL-6) increased in the co-culture ([2]; A549 cells co-cultured with CAFs 24, 48, 72 hours, FIGS. 6 to 8): could not suppress
expression ratio of N-cadherin/E-cadherin (N-cad/E-cad), indicator of EMT, in the co-culture ([2]; A549 cells co-cultured with CAFs, FIGS. 6D, 7D, 8D): did not show any effect
tumor growth as compared with the control group (A549 cells and CAFs): showed an effect of tumor growth suppression
